Results as given in paper PMC7912279, “Preclinical Evaluation of ^99mTc-Labeled GRPR Antagonists maSSS/SES-PEG2-RM26 for Imaging of Prostate Cancer” (Pharmaceutics, 2021).

Legend:
[1] = Octanol-water distribution coefficient (logD); type: physicochemical; conditions: determined as previously described [35]
Description: To test the stability, the radiolabeled peptides were incubated with 300× molar excess of cysteine or with PBS at room temperature for 1 h. The octanol-water distribution coefficient (logD) was determined as previously described.

PC-3 xenografts = test: Biodistribution in tumor bearing mice; type: in vivo; conditions: BALB/c nu/nu mice bearing PC-3 xenografts, 3 h pi
Description: Animals: All in vivo experiments were carried out on BALB/c nu/nu or NMRI mice provided by Scanbur A/S (Sollentuna, Sweden). All animal studies were approved by the Ethics Committee for Animal Research in Uppsala (Sweden), following the national legislation on the protection of laboratory animals (project identification code of approval 5/16, 26 February 2016). Prostate cancer xenografts expressing GRPR were established in BALB/c nu/nu mice by subcutaneous injection of PC-3 cell suspension in PBS (7 × 10^6 cells in 100 µL) four weeks before the experiment. Four to seven mice per data point were used in in vivo experiments, two mice per data point were used in metabolic analysis and SPECT/CT imaging experiments.
Biodistribution in tumor bearing mice: The comparison of biodistribution between the two radiolabeled peptides was evaluated in BALB/c nu/nu mice bearing PC-3 xenografts. Each mouse was injected with 40 pmol (30 kBq, mass of injected peptide was adjusted with unlabeled peptide) of either [^99mTc]Tc-maSSS-PEG2-RM26 or [^99mTc]Tc-maSES-PEG2-RM26. The mice were euthanized 3 h pi. Sample collection and activity measurements were done as described above. The biodistribution of [^99mTc]Tc-maSSS-PEG2-RM26 was further studied at 6 h pi following the same protocol. Additionally for [^99mTc]Tc-maSSS-PEG2-RM26, one group of xenograft bearing mice was injected with 40 pmol (30 kBq, mass of injected peptide was adjusted with unlabeled peptide) of labeled peptide with 5 nmol of unlabeled peptide and euthanized 3 h pi.

[2] = 40 pmol (30 kBq), gamma counter, 4-7 mice

logD [1]: -1.0
uptake, Blood (PC-3 xenografts; [2]): 0.15 ± 0.07 % IA/g
uptake, Bone (PC-3 xenografts; [2]): 0.04 ± 0.02 % IA/g
uptake, GI (gastrointestinal tract with content) (PC-3 xenografts; [2]): 46 ± 4 % IA
uptake, Intestine (PC-3 xenografts; [2]): 1.1 ± 0.6 % IA/g
uptake, Kidneys (PC-3 xenografts; [2]): 3 ± 2 % IA/g
uptake, Liver (PC-3 xenografts; [2]): 1.1 ± 0.3 % IA/g
uptake, Lung (PC-3 xenografts; [2]): 0.14 ± 0.07 % IA/g
uptake, Muscle (PC-3 xenografts; [2]): 0.04 ± 0.03 % IA/g
uptake, Pancreas (PC-3 xenografts; [2]): 2 ± 1 % IA/g
uptake, Spleen (PC-3 xenografts; [2]): 0.11 ± 0.02 % IA/g
uptake, Stomach (PC-3 xenografts; [2]): 0.9 ± 0.4 % IA/g
uptake, Tumor (PC-3 xenografts; [2]): 2.9 ± 0.7 % IA/g
Tumor-to-non-tumor ratio, Blood (PC-3 xenografts; 40 pmol): 26 ± 19
Tumor-to-non-tumor ratio, Bone (PC-3 xenografts; 40 pmol): 84 ± 54
Tumor-to-non-tumor ratio, Intestine (PC-3 xenografts; 40 pmol): 3 ± 2
Tumor-to-non-tumor ratio, Kidneys (PC-3 xenografts; 40 pmol): 2 ± 2
Tumor-to-non-tumor ratio, Liver (PC-3 xenografts; 40 pmol): 3.0 ± 0.8
Tumor-to-non-tumor ratio, Lung (PC-3 xenografts; 40 pmol): 26 ± 16
Tumor-to-non-tumor ratio, Muscle (PC-3 xenografts; 40 pmol): 90 ± 52
Tumor-to-non-tumor ratio, Pancreas (PC-3 xenografts; 40 pmol): 1.5 ± 0.8
Tumor-to-non-tumor ratio, Spleen (PC-3 xenografts; 40 pmol): 24 ± 10
Tumor-to-non-tumor ratio, Stomach (PC-3 xenografts; 40 pmol): 4 ± 2
SMILES: CC(C)C[C@H](NC(=O)C[C@H](O)[C@H](CC(C)C)NC(=O)[C@H](Cc1c[nH]cn1)NC(=O)CNC(=O)[C@@H](NC(=O)[C@H](C)NC(=O)[C@H](Cc1c[nH]c2ccccc12)NC(=O)[C@H](CCC(N)=O)NC(=O)[C@@H](Cc1ccccc1)NC(=O)COCCOCCNC(=O)[C@H](CO)NC(=O)[C@H](CCC(=O)O)NC(=O)[C@H](CO)NC(=O)CS)C(C)C)C(N)=O [[^99mTc]Tc-maSES-PEG2-RM26, metal not drawn]
